Data as given in US20240252488A1 (KOREA RESEARCH INSTITUTE OF CHEMICAL TECHNOLOGY, priority 2020, published 2024).

How the values were obtained:
FADD−/− Jurkat cells = assay: Necroptosis inhibition assay, TNF-α-induced necroptosis (CellTiter-Glo 2.0); type: cell-based, human; conditions: TNF-α 15 ng/mL; for Necroptosis inhibition assay (Rescue %) 1 μM: compound 1 μM; for Necroptosis inhibition assay (Rescue %) 10 μM: compound 10 μM
In short: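 Necroptosis induced by 15 ng/mL TNF-α (final) for 20–24 h at 37 °C, after a 30 min room-temperature pretreatment of FADD-deficient Jurkat cells with 0.1, 1 or 10 μM compound. ATP-based luminescence gave viability, from which inhibition rate and cytotoxicity were derived.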

MLKL [1] = molecular target: T1, MLKL (Homo sapiens, UniProt Q8NB16); assay: MLKL degradation assay in HepG2 cell line (western blot); type: cell-based; design: endogenous in cells; host or cells: HepG2 or HaCaT; conditions: cell line not given; for Degradation assay (Degradation %) 1 μM: compound 1 μM; for Degradation assay (Degradation %) 10 μM: compound 10 μM
T1 sequence (Q8NB16 1-471): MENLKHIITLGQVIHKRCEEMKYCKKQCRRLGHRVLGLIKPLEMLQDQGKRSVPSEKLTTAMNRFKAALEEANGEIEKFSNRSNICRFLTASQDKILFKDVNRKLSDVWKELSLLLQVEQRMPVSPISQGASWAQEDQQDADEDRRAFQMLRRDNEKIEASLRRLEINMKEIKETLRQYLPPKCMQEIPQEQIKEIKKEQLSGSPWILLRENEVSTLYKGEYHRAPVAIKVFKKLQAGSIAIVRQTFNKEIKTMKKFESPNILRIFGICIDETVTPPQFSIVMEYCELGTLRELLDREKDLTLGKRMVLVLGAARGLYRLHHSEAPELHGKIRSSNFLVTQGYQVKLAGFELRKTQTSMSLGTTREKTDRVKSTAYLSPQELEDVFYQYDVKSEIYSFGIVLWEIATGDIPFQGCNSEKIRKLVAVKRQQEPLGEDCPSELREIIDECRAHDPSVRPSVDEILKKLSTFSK
In short: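 Western blot chemiluminescence of MLKL in equal-protein lysates (10-15 μg, BCA-adjusted). Before lysis, HepG2 cells were exposed to 1 or 10 μM (final) test compound for 20-24 h at 37 °C.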

MLKL [2] = molecular target: T1, MLKL; assay: Measurement of binding affinity with MLKL receptor (competitive binding assay, Kd); design: made in house; host or cells: HEK 293 cell line (T7 phage in E. coli BL21-derived host is also described)
In short: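 Kd from an immobilized-ligand competition format: the DNA-tagged kinase from HEK 293 expression is eluted and quantified by qPCR. Compounds added from 111× DMSO stocks, final DMSO 0.9%.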

SMILES	Necroptosis inhibition assay (Rescue %) 1 μM (FADD−/− Jurkat cells; FADD−/− Jurkat cells) [%]	Necroptosis inhibition assay (Rescue %) 10 μM (FADD−/− Jurkat cells; FADD−/− Jurkat cells) [%]	Degradation assay (Degradation %) 1 μM (MLKL [1]) [%]	Degradation assay (Degradation %) 10 μM (MLKL [1]) [%]	Kd (MLKL [2]) [nM]	Necroptosis inhibition assay (Rescue %) 1 μM (FADD−/− Jurkat cells) [%]	Necroptosis inhibition assay (Rescue %) 10 μM (FADD−/− Jurkat cells) [%]	Necroptosis inhibition assay (Rescue %) 1.1 μM (FADD−/− Jurkat cells; compound 1.1 µM)
COc1ccc(C(=O)N2CCC3(CC2)CC(N2CCC(CCN4CCC(n5cc(-c6cnc(N)c(C(=O)O[C@@H](C(=O)Nc7ccc(F)cc7)c7ccccc7)n6)cn5)CC4)CC2)C3)cc1N1CCC(=O)NC1=O [TDH-504, (R)-2-((4-fluorophenyl)amino)-2-oxo-1-phenylethyl 3-amino-6-(1-(1-(2-(1-(7-(3-(2,4-dioxotetrahydropyrimidin-1(2H)-yl)-4-methoxybenzoyl)-7-azaspiro[3.5]nonan-2-yl)piperidin-4-yl)ethyl)piperidin-4-yl)-1H-pyrazol-4-yl)pyrazine-2-carboxylate]	94.61	33.71	93.87	94.41	0.23	–	–	–
Nc1ncc(-c2cnn(C3CCN(CCC4CCN(C(=O)C5CN(c6ccc7nnn(C8CCC(=O)NC8=O)c(=O)c7c6)C5)CC4)CC3)c2)nc1C(=O)OC(C(=O)Nc1ccc(F)cc1)c1ccccc1 (stereo not shown) [TDH-291, 2-((4-fluorophenyl)amino)-2-oxo-1-phenylethyl 3-amino-6-(1-(1-(2-(1-(1-(3-(2,6-dioxopiperidin-3-yl)-4-oxo-3,4-dihydrobenzo[d][1,2,3]triazin-6-yl)azetidine-3-carbonyl)piperidin-4-yl)ethyl)piperidin-4-yl)-1H-pyrazol-4-yl)pyrazine-2-carboxylate]	–	–	70.94	48.11	6.7	87.96	64.92	–
Nc1ncc(-c2cnn(C3CCN(CC4CCN(C(=O)CCc5cccc6c5CN(C5CCC(=O)NC5=O)C6=O)CC4)CC3)c2)nc1C(=O)O[C@@H](C(=O)Nc1ccc(F)cc1)c1ccccc1 (stereo partly drawn) [TDH-384, (R)-2-((4-fluorophenyl)amino)-2-oxo-1-phenylethyl 3-amino-6-(1-(1-((1-(3-(2-(2,6-dioxopiperidin-3-yl)-1-oxoisoindolin-4-yl)propanoyl)piperidin-4-yl)methyl)piperidin-4-yl)-1H-pyrazol-4-yl)pyrazine-2-carboxylate]	–	–	81.59	58.63	1.9	39.08	9.67	–
Nc1ncc(-c2cnn(C3CCN(C(=O)CC4CCN(C(=O)C5CCN(c6ccc7nnn(C8CCC(=O)NC8=O)c(=O)c7c6)CC5)CC4)CC3)c2)nc1C(=O)O[C@@H](C(=O)Nc1ccc(F)cc1)c1ccccc1 (stereo partly drawn) [TDH-407, (R)-2-((4-fluorophenyl)amino)-2-oxo-1-phenylethyl 3-amino-6-(1-(1-(2-(1-(1-(3-(2,6-dioxopiperidin-3-yl)-4-oxo-3,4-dihydrobenzo[d][1,2,3]triazin-6-yl)piperidine-4-carbonyl)piperidin-4-yl)acetyl)piperidin-4-yl)-1H-pyrazol-4-yl)pyrazine-2-carboxylate]	52.02	42.95	83.70	79.77	7.5	–	–	–
Nc1ncc(-c2cnn(C3CCN(CCOC4CCN(C(=O)COc5cccc6c5C(=O)N(C5CCC(=O)NC5=O)C6=O)CC4)CC3)c2)nc1C(=O)O[C@@H](C(=O)Nc1ccc(F)cc1)c1ccccc1 (stereo partly drawn) [TDH-331, (R)-2-((4-fluorophenyl)amino)-2-oxo-1-phenylethyl 3-amino-6-(1-(1-(2-((1-(2-((2-(2,6-dioxopiperidin-3-yl)-1,3-dioxoisoindolin-4-yl)oxy)acetyl)piperidin-4-yl)oxy)ethyl)piperidin-4-yl)-1H-pyrazol-4-yl)pyrazine-2-carboxylate]	–	–	54.86	60.37	2.6	–	47.13	49.38 (1.1 µM) %
Nc1ncc(-c2cnn(C3CCN(C(=O)COC4CCN(C(=O)COc5cccc6c5C(=O)N(C5CCC(=O)NC5=O)C6=O)CC4)CC3)c2)nc1C(=O)O[C@@H](C(=O)Nc1ccc(F)cc1)c1ccccc1 (stereo partly drawn) [TDH-393, (R)-2-((4-fluorophenyl)amino)-2-oxo-1-phenylethyl 3-amino-6-(1-(1-(2-((1-(2-((2-(2,6-dioxopiperidin-3-yl)-1,3-dioxoisoindolin-4-yl)oxy)acetyl)piperidin-4-yl)oxy)acetyl)piperidin-4-yl)-1H-pyrazol-4-yl)pyrazine-2-carboxylate]	–	–	73.39	82.10	0.99	27.21	38.01	–
Cc1ncsc1-c1ccc(CNC(=O)[C@@H]2C[C@@H](O)CN2C(=O)[C@@H](NC(=O)CN2CCC(CN3CCC(n4cc(-c5cnc(N)c(C(=O)O[C@@H](C(=O)Nc6ccc(F)cc6)c6ccccc6)n5)cn4)CC3)CC2)C(C)(C)C)cc1 [TDH-211, (R)-2-((4-fluorophenyl)amino)-2-oxo-1-phenylethyl 3-amino-6-(1-(1-((1-(2-(((S)-1-((2S,4R)-4-hydroxy-2-((4-(4-methylthiazol-5-yl)benzyl)carbamoyl)pyrrolidin-1-yl)-3,3-dimethyl-1-oxobutan-2-yl)amino)-2-oxoethyl)piperidin-4-yl)methyl)piperidin-4-yl)-1H-pyrazol-4-yl)pyrazine-2-carboxylate]	–	–	9.7	29.62	6.3	29.87	41.58	–
Nc1ncc(-c2cnn(C3CCN(CCCN4CCN(CC5CCN(c6ccc7c(c6)C(=O)N(C6CCC(=O)NC6=O)C7=O)CC5)CC4)CC3)c2)nc1C(=O)O[C@@H](C(=O)Nc1ccc(F)cc1)c1ccccc1 (stereo partly drawn) [TDH-474, (R)-2-((4-fluorophenyl)amino)-2-oxo-1-phenylethyl 3-amino-6-(1-(1-(3-(4-((1-(2-(2,6-dioxopiperidin-3-yl)-1,3-dioxoisoindolin-5-yl)piperidin-4-yl)methyl)piperazin-1-yl)propyl)piperidin-4-yl)-1H-pyrazol-4-yl)pyrazine-2-carboxylate]	25.61	5.98	54.33	68.31	0.95	–	–	–
Nc1ncc(-c2cnn(C3CCN(C(=O)CCCCCNC(=O)CNc4cccc5c4C(=O)N(C4CCC(=O)NC4=O)C5=O)CC3)c2)nc1C(=O)O[C@@H](C(=O)Nc1ccc(F)cc1)c1ccccc1 (stereo partly drawn) [TDH-124, (R)-2-((4-fluorophenyl)amino)-2-oxo-1-phenylethyl 3-amino-6-(1-(1-(6-(2-((2-(2,6-dioxopiperidin-3-yl)-1,3-dioxoisoindolin-4-yl)amino)acetamido)hexanoyl)piperidin-4-yl)-1H-pyrazol-4-yl)pyrazine-2-carboxylate]	–	–	–	8.02	12	21.88	27.22	–
Nc1ncc(-c2cnn(C3CCN(CCc4cn(C5CCN(C(=O)CNc6ccc7c(c6)C(=O)N(C6CCC(=O)NC6=O)C7=O)CC5)nn4)CC3)c2)nc1C(=O)O[C@@H](C(=O)Nc1ccc(F)cc1)c1ccccc1 (stereo partly drawn) [TDH-452, (R)-2-((4-fluorophenyl)amino)-2-oxo-1-phenylethyl 3-amino-6-(1-(1-(2-(1-(1-((2-(2,6-dioxopiperidin-3-yl)-1,3-dioxoisoindolin-5-yl)glycyl)piperidin-4-yl)-1H-1,2,3-triazol-4-yl)ethyl)piperidin-4-yl)-1H-pyrazol-4-yl)pyrazine-2-carboxylate]	38.27	26.02	61.94	52.12	1.8	–	–	–
